Test results as given in patent publication US20220002288A1, “MONOBACTAM COMPOUNDS AND USE THEREFOR” (priority 2018, published 2022).
Counter-ions that a name gives are not always drawn.

Tests used:
Type in all cases: cell-based
[1] = tested on: drug-resistant Acinetobacter baumannii; test: MIC in combination with Relebactam
Text: In addition, the inventors of the present invention also tested the inhibitory activities of the compound of Example 1 and Compound C, respectively, in combination with Relebactam on drug-resistant Acinetobacter baumannii (the experimental method was the same as that in Experimental Example 1).

[2] = tested on: clinically isolated Acinetobacter baumannii; test: MIC experiment of clinically sourced bacterial strains; conditions: for MIC: Acinetobacter baumannii
Procedure: (§1) Compounds: the compound of Example 1 and Compound C of Comparative Example 3. Both test compounds were dissolved and diluted with DMSO, and the final concentrations were prepared as 64, 32, 16, 8, 4, 2, 1, 0.5, 0.25, 0.125, 0.0625 μg/mL in the experiment.
(§2) Bacterial strains: clinically isolated Acinetobacter baumannii, Pseudomonas aeruginosa, Klebsiella pneumoniae and Escherichia coli, all provided by HD Biosciences (Shanghai) Co., Ltd.
(§3) Medium: Trypticase soy agar (TSA) (BD BBL 211043), and Cation-adjusted Mueller Hinton broth (CAMHB) (BD BBL212322).
(§4) The experimental method was the same as that in the above Experimental Example 1.

[3] = tested on: clinically isolated Klebsiella pneumoniae; test: as above; conditions: for MIC: Klebsiella pneumoniae
Procedure: as §1, §2, §3, §4

[4] = tested on: clinically isolated Pseudomonas aeruginosa; test: as above
Procedure: as §1, §2, §3, §4

[5] = tested on: clinically isolated Escherichia coli; test: as above
Procedure: as §1, §2, §3, §4

CC1(C)[C@H](NC(=O)/C(=N\O[C@@H](COc2ccc(C(=O)Nc3cn(CCCN)[n+](CC4CNC4)c3)cc2)C(=O)O)c2csc(N)n2)C(=O)N1OS(=O)(=O)[O-] [Example 1, (S)-3-((Z)-2-(((S)-2-(4-((1-(3-aminopropyl)-2-(azetidin-3-ylmethyl)-1H-pyrazol-2-ium-4-yl)carbamoyl)phenoxy)-1-carboxyethoxy)imino)-2-(2-aminothiazol-4-yl)acetylamino)-2,2-dimethyl-4-oxoazetidin-1-yl Sulfate]
MIC ([1]; strain HDBAB-YK12, in combination with 4 μg/mL Relebactam): 2 µg/mL
MIC ([1]; strain HDBAB-YK16, in combination with 4 μg/mL Relebactam): 4 µg/mL
MIC ([1]; strain HDBAB_OXA_7, in combination with 4 μg/mL Relebactam): 2 µg/mL
MIC ([2]; clinical strain A0242702): ≤ 0.063 µg/mL
MIC ([2]; clinical strain A0244122): 0.5 µg/mL
MIC ([2]; clinical strain A0248164): 1 µg/mL
MIC ([2]; clinical strain A0248384): 1 µg/mL
MIC ([2]; clinical strain A0252247): ≤ 0.063 µg/mL
MIC ([2]; clinical strain A0254384): ≤ 0.063 µg/mL
MIC ([2]; clinical strain A0255830): 4 µg/mL
MIC ([2]; clinical strain A0257674): ≤ 0.063 µg/mL
MIC ([2]; clinical strain A0258522): ≤ 0.063 µg/mL
MIC ([2]; clinical strain A0262855): ≤ 0.063 µg/mL
MIC ([2]; clinical strain A0270386): 1 µg/mL
MIC ([2]; clinical strain A0272260): 0.125 µg/mL
MIC ([2]; clinical strain A0273375): 1 µg/mL
MIC ([2]; clinical strain A0273826): 4 µg/mL
MIC ([2]; clinical strain A0274925): 0.125 µg/mL
MIC ([2]; clinical strain A0283307): ≤ 0.063 µg/mL
MIC ([2]; clinical strain A0284214): ≤ 0.063 µg/mL
MIC ([2]; clinical strain A0284295): ≤ 0.063 µg/mL
MIC ([2]; clinical strain A0284552): 0.5 µg/mL
MIC ([2]; clinical strain A0285002): 1 µg/mL
MIC ([2]; clinical strain A0285050): 0.125 µg/mL
MIC ([2]; clinical strain A0285231): 1 µg/mL
MIC ([2]; clinical strain A0285299): ≤ 0.063 µg/mL
MIC ([2]; clinical strain A0285369): ≤ 0.063 µg/mL
MIC ([2]; clinical strain A0285909): 4 µg/mL
MIC ([2]; clinical strain A0286065): 1 µg/mL
MIC90 ([2]; clinically isolated Acinetobacter baumannii): 4 µg/mL
MIC value relative to that of Compound C ([2]; strains A0244122, A0255830, A0273826, A0285299, A0285909): ¼
MIC ([3]; clinical strain Kp309): ≤ 0.063 µg/mL
MIC ([3]; clinical strain Kp310): ≤ 0.063 µg/mL
MIC ([3]; clinical strain Kp472): 0.125 µg/mL
MIC ([3]; clinical strain Kp510): 0.25 µg/mL
MIC value relative to that of Compound C ([3]; strain Kp309): ¼
MIC ([4]; clinical strain P7): 1 µg/mL
MIC ([4]; clinical strain P43): 0.25 µg/mL
MIC ([4]; clinical strain P155): 1 µg/mL
MIC ([4]; clinical strain P157): 1 µg/mL
MIC ([4]; clinical strain P162): 1 µg/mL
MIC ([5]; clinical strain HDB0140): 1 µg/mL
MIC ([5]; clinical strain HDB0918): 0.25 µg/mL
MIC ([5]; clinical strain HDB1120): ≤ 0.063 µg/mL
MIC ([5]; clinical strain HDB5510): 0.125 µg/mL
MIC ([5]; clinical strain HDB8244): 0.5 µg/mL
